From patent US5861476A, “Peptides and compounds that bind to the IL-1 receptor” (Affymax Technologies N.V., priority 1995, dated 1999)
Like-named read-outs stand apart in the source and are kept apart here. Where a SMILES comes first, the peptide text is derived from it. Where no end group is shown, it is not given here. [ ]: non-standard residue; d: D form. Aze = O=C(O)[C@@H]1CCN1

Molecular target: T1, IL-1RtI (Homo sapiens, UniProt P14778)
T1 construct: made in house; host or cells: recombinant host cells (one form soluble from baculovirus transformed host cells; another PIG-tailed and cleaved from the cell surface)
T1 sequence (P14778 18-336): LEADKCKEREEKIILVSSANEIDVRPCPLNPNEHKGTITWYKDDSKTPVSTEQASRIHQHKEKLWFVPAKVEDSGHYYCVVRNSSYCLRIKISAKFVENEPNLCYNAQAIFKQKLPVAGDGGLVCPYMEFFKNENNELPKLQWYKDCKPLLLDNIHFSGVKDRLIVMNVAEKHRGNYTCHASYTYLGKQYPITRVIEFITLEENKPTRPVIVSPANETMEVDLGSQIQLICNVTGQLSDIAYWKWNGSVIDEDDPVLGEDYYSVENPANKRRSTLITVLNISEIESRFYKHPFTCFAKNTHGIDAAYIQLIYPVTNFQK
Assay: Inhibition of 125I-IL-1α binding to IL-1RtI (Example 3)
Method: This example provides the results of experiments conducted to determine an approximate IC50 for certain peptides of the invention. IC50 as used herein refers to the concentration of a compound which will inhibit 50% of the binding between a receptor and its ligand, e.g. IL-1RtI and IL-1. Stock solutions of each peptide were prepared. The appropriate amount of the peptide was dissolved in DMSO, and then nineteen volumes of binding buffer (RPMI 1640, 1% BSA, 20 mM HEPES, pH 7.2-7.3, and 0.1% sodium azide) were added to yield a 1 mM peptide, 5% DMSO stock solution.
One assay utilized a truncated IL-1RtI which had been immobilized on 96-well plates with an appropriate antibody, typically a non-blocking high affinity antibody. In other assays, cells expressing "full-length" IL-1RtI were used with results that yielded IC50 values about 5 to 10 fold lower than those determined using the truncated receptor. The cells were seeded onto Falcon 3072 96-well plates at about 10^5 cells per well, and the plates were incubated overnight at 37° C. in media containing serum. The following morning, the cells were checked to ensure that the cells were confluent and adhered to the bottom of the wells.
According to either assay protocol, the plates were then washed three times with binding buffer, and then 50 μl of binding buffer and 25 μl of a peptide solution (either the stock solution or a dilution thereof; each stock was subjected to five three fold dilutions) were added to each well. Then 25 μl of binding buffer containing ^125 I-IL-1α (final concentration of 90 pM) were added to each well to begin the assay. Each assay was carried out in duplicate. The plates were then incubated for two hours at 4° C. For peptides having particularly high affinities, the assay was run in 24 well plates allowing for higher levels of ligand (possible total volume of 2.5 ml instead of 100 μl in the 96 well plate), thereby minimizing the potential for ligand depletion.
After the two hour incubation, the wells were rinsed three times with ice cold PBS (a semi-automated cell harvesting device was used to conduct the rinse). The receptors or cells were then detached from the plates by adding 100 μl of 0.1N NaOH to each well and incubating the plates at room temperature for 20 minutes. After the 20 minute incubation, about 75 μl of the suspension was counted on a gamma counter, and the IC50 for each peptide was determined using computer assistance and the results of the gamma counting.

[1] = inhibition of 125I-IL-1α binding to IL-1RtI, soluble peptide unless marked *

Compound	IC50 [1] [µM]	IC50 [µM]
C[C@H](NC(=O)[C@H](CC(N)=O)NC(=O)[C@H](CO)NC(=O)[C@H](CCC(=O)O)NC(=O)[C@H](CCC(=O)O)NC(=O)[C@H](Cc1c[nH]c2ccccc12)NC(=O)[C@@H](NC(=O)[C@@H](N)Cc1ccccc1)[C@@H](C)O)C(=O)N[C@@H](Cc1ccc(O)cc1)C(=O)N[C@@H](Cc1ccc(O)cc1)C(=O)N[C@@H](Cc1c[nH]c2ccccc12)C(=O)N[C@@H](CCC(N)=O)C(=O)N1CC[C@H]1C(=O)N[C@@H](Cc1ccc(O)cc1)C(N)=O [FTWEESNAYYWQJY-NH2] (H-FTWEESNAYYWQ[Aze]Y-NH2)		< 0.5
CC(C)C[C@H](NC(=O)[C@@H]1CCCN1C(=O)[C@H](CC(C)C)NC(=O)[C@H](C)NC(=O)[C@H](Cc1ccc(O)cc1)NC(=O)[C@@H]1CCN1C(=O)[C@H](CCC(N)=O)NC(=O)[C@H](Cc1c[nH]c2ccccc12)NC(=O)[C@H](Cc1ccc(O)cc1)NC(=O)[C@H](Cc1ccc(O)cc1)NC(=O)[C@H](C)NC(=O)[C@H](CC(N)=O)NC(=O)[C@H](CO)NC(=O)[C@H](CCC(=O)O)NC(=O)[C@H](CCC(=O)O)NC(=O)[C@H](Cc1c[nH]c2ccccc12)NC(=O)[C@@H](NC(=O)[C@@H](N)Cc1ccccc1)[C@@H](C)O)C(=O)O [FTWEESNAYYWQJYALPL] (H-FTWEESNAYYWQ[Aze]YALPL-OH)		< 0.5
ESFWVQPYALPL [ESFWVQ PYALPL]	> 100	
FTWEESNAYYWQPY-NH2 [FTWEESNAYYWQPY-NH2]		< 0.5
GVVWYQPYALPL [GVVWYQ PYALPL]	> 100	
HIDNTAWYENFLLTYTP [HIDNTAWYENFLLTYTP]		< 0.5
QIDNTAWYERFLLQYNA [QIDNTAWYERFLLQYNA]		< 0.5
RFDYWQPYSDQT [RFDYWQPYSDQT]	≤ 100	
RFMYWQPYSVQR [RFMYWQPYSVQR]	≤ 100	
RGDYWQPYSVQS [3H9, 11, RGDYWQPYSVQS]	≤ 100	
RLVYWQPYSVQT [Peptide 3H2, RLVYWQPYSVQT]	≤ 100	
RPLYWQPYSVQV [RPLYWQPYSVQV]	≤ 100	
RSLYWQPYALPL [RSLYWQ PYALPL]	≤ 100	
RSQYYQPYALPL [RSQYYQ PYALPL]	≤ 100	
RWEQPYVKDGWS [RWEQPYVKDGWS]	≤ 100	
RWWQPYATPL [RWWQPYATPL]	≤ 100	
SDIWYQPYALPL [SDIWYQ PYALPL]	≤ 100	
SHLYWQPYSVQ [Peptide 2H2, SHLYWQPYSVQ]	≤ 100	
SRIWCQPYALPL [SRIWCQ PYALPL]	≤ 100	
SRVWFQPYSLQS [3H1, 6, 12, SRVWFQPYSLQS]	≤ 100	
SWHSVYWQPYSVQSVPE [SWHS VYWQPYSVQ SVPE]	≤ 100	
SYDWEQPYALPL [SYDWEQ PYALPL]	≤ 100	

Compound	IC50 [1] [µM]	IC50 [µM]
TIIWEQPYALPL [TIIWEQ PYALPL]	≤ 100	
TLIYWQPYSVQI [TLIYWQPYSVQI]	≤ 100	
TLVYWQPYSLQT [Peptide H3, TLVYWQPYSLQT]	≤ 100	
TYTYDNTAWYERFLMSY [TYTYDNTAWYERFLMSY]		< 0.5
VHVYWQPYSVQT [Peptide 3H5, VHVYWQPYSVQT]	≤ 100	
VIEWWQPYALPL [VIEWWQ PYALPL]	≤ 100	
VWYWEQPYALPL [VWYWEQ PYALPL]	≤ 100	
VYWQPYSVQ [VYWQPYSVQ]	≤ 100	
WETWYQPYALPL [WETWYQ PYALPL]	≤ 100	
WGEWLQPYALPL [WGEWLQ PYALPL]	≤ 100	
WGNWWQPYSVHR [WGNWWQPYSVHR]	> 100	
WLAWEQPYALPL [WLAWEQ PYALPL]	≤ 100	
WRDSVYWQPYSVQPESA [WRDS VYWQPYSVQ PESA]	≤ 100	
WWQPYALPL [WWQPYALPL]	≤ 100	
YFQPYALGL [YFQPYALGL]	≤ 100	
YFQPYALPF [YFQPYALPF]	> 100	
YWYQPYALGL [YWYQPYALGL]	≤ 100	
YWYQPYALPL [YWYQPYALPL]	≤ 100	
YYQPYALPL [YYQPYALPL]	≤ 100	
YYSWQPYALPL [YYSWQ PYALPL]	> 100	
YYTWQQPYALPL [YYTWQQ PYALPL]	> 100	

The remaining lines, values ahead:

IC50 [1] [µM]	IC50 [µM]	Compound
≤ 0.5		CC(C)[C@H](NC(=O)[C@H](Cc1c[nH]c2ccccc12)NC(=O)[C@H](CCC(=O)O)NC(=O)[C@@H](N)Cc1ccccc1)C(=O)N1CCC[C@H]1C(=O)NCC(=O)N[C@@H](Cc1ccc(O)cc1)C(=O)N[C@@H](Cc1ccc(O)cc1)C(=O)N[C@@H](CCC(N)=O)C(=O)N1CC[C@H]1C(=O)N[C@@H](Cc1ccc(O)cc1)C(N)=O [FEWVPGYYQJY--NH2] (H-FEWVPGYYQ[Aze]Y-NH2)
≤ 0.5		C[C@@H](O)[C@H](NC(=O)[C@H](Cc1c[nH]c2ccccc12)NC(=O)[C@H](CCC(=O)O)NC(=O)[C@@H](N)Cc1ccc(O)cc1)C(=O)N1CCC[C@H]1C(=O)NCC(=O)N[C@@H](Cc1ccc(O)cc1)C(=O)N[C@@H](Cc1ccc(O)cc1)C(=O)N[C@@H](CCC(N)=O)C(=O)N1CC[C@H]1C(=O)N[C@@H](Cc1ccc(O)cc1)C(N)=O [YEWTPGYYQJY--NH2] (H-YEWTPGYYQ[Aze]Y-NH2)
≤ 100		AHLFWQPYSVQR [AHLFWQPYSVQR]
≤ 100		AHTWWQPYALPL [AHTWWQ PYALPL]
≤ 100		ARFWLQPYALPL [ARFWLQ PYALPL]
≤ 100		ASEWWQPYALPL [ASEWWQ PYALPL]
≤ 100		AWVQPYATPLDE [AWVQPYATPLDE]
≤ 100		DNSSWYDSFLL [DNSSWYDSFLL]
≤ 100		DNTAWYENFLL [DNTAWYENFLL]
≤ 100		DNTAWYESFLA [DNTAWYESFLA]
≤ 100		DSYWWQPYALPL [DSYWWQ PYALPL]
≤ 100		DWFQPYSIQSDE [DWFQPYSIQSDE]
≤ 100		DYVWEQPYALPL [DYVWEQ PYALPL]
≤ 100		DYVWQQPYALPL [DYVWQQ PYALPL]
≤ 100		EGWWVQPYALPL [EGWWVQ PYALPL]
≤ 100		EIMFWQPYALPL [EIMFWQ PYALPL]
≤ 0.5		ENTYSPNWADSMYWQPYALPL [ENTYSPNWADSM YWQPYALPL]
≤ 100		EWTPGYWQPY-NH2 [EWTPGYWQPY--NH2]
≤ 100		EWYQPYALGWAR [EWYQPYALGWAR]

IC50 [1] [µM]	IC50 [µM]	Compound
≤ 0.5		FEWTPGYWQPY-NH2 [FEWTPGYWQPY--NH2]
≤ 0.5	< 0.5	FEWTPGYWQPYALPL [FEWTPGYWQPYALPL]
≤ 100		FIEWFQPYALPL [FIEWFQ PYALPL]
≤ 100		FYEWWQPYALPL [FYEWWQ PYALPL]
≤ 100		GWEQPYARGLAG [GWEQPYARGLAG]
≤ 100		GWTQPYSQQGEV [GWTQPYSQQGEV]
≤ 100		GWWQPYARGL [GWWQPYARGL]
≤ 100		GWYQPYALGF [GWYQPYALGF]
≤ 100		GWYQPYVDGWR [GWYQPYVDGWR]
≤ 100		HWGHVYWQPYSVQDDLG [HWGH VYWQPYSVQ DDLG]
≤ 100		IWYQPYAMPL [IWYQPYAMPL]
≤ 100		LFEQPYAKALGL [LFEQPYAKALGL]
≤ 100		MWYQPYSSQPAE [MWYQPYSSQPAE]
≤ 100		NMVYWQPYSIQT [Peptide 3H7, NMVYWQPYSIQT]
≤ 100		NSYFWQPYALPL [NSYFWQ PYALPL]
≤ 100		PWIQPYARGFG [PWIQPYARGFG]
≤ 100		QRIWWQPYALPL [QRIWWQ PYALPL]
≤ 0.5		SVGEDHNFWTSEYWQPYALPL [SVGEDHNFWTSE YWQPYALPL]
≤ 0.5		SWTDYGYWQPYALPISGL [SWTDYG YWQPYA LPISGL]
